From patent US20220325245A1 (Board of Regents, The University of Texas System, priority 2019, published 2022)
Where two headings read alike, the source gives them in different places.

Experiments:
[1] = system: GVHD; conditions: patients who had received Capsase-9+ T cells; cited from earlier work
[2] = system: NT CB-NK cells; test: Dimerizer effect on non-transduced cells (annexin-V/7AAD staining); assay type: cell-based; conditions: 10 nM dimerizer
Description: iC9/CAR.19/IL15+ CB-NK cells are eliminated after activation of the suicide gene by exposure to a small-molecule dimerizer. To counteract the possibility of excessive toxicity mediated by the release of inflammatory cytokines by transduced CB-NK cells or uncontrolled NK cell growth, we incorporated a suicide gene based on the inducible caspase-9 gene in the construct (Di et al., 2011). […] The suicide gene was also effective in vivo.

[3] = cited from earlier work
[4] = system: CLL; conditions: alone or in combination with a corticosteroid; cited from earlier work
[5] = cited from earlier work; remark: listed apart in the source
[6] = target: CD19 on CD19+ Raji cells and primary CLL cells (UniProt P15391); test: cell-based or functional assay
UniProt P15391, sequence (P15391 20-556 limits assumed): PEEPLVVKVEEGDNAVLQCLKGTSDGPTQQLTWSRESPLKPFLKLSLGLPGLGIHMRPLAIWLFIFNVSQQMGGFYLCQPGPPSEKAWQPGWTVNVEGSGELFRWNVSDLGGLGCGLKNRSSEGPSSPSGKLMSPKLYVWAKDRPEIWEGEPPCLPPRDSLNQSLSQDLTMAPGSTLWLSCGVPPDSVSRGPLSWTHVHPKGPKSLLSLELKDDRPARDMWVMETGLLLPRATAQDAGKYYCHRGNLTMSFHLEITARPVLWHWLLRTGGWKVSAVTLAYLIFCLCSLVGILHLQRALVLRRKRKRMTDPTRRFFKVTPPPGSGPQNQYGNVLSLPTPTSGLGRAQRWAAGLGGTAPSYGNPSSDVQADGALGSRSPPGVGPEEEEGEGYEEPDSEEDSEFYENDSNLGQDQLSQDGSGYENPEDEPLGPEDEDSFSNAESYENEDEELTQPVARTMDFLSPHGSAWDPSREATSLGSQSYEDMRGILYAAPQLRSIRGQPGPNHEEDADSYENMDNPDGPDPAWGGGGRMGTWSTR

Question: For `CC[C@H](C(=O)N1CCCC[C@H]1C(=O)O[C@H](CCc1ccc(OC)c(OC)c1)c1cccc(OCC(=O)NCCNC(=O)COc2cccc([C@@H](CCc3ccc(OC)c(OC)c3)OC(=O)[C@@H]3CCCCN3C(=O)[C@@H](CC)c3cc(OC)c(OC)c(OC)c3)c2)c1)c1cc(OC)c(OC)c(OC)c1` [AP1903], which “time to response of GVHD” value [1] is on record?
Answer: Its value is 24 to 48 h.

Question: And the “viability of NT CB-NK cells” value [2]?
Answer: The value was “no effect”.

Question: What about the plasma concentrations ([3]; 0.01 mg/kg to 1.0 mg/kg dose range) of the same compound?
Answer: Its plasma concentrations is 10 to 1275 ng/mL.

Question: And the “plasma level, percent of maximum” value ([3]; 0.5 hrs post dose)?
Answer: Its value is 18%.

Question: And the “plasma level, percent of maximum” value ([3]; 2 hrs post dose)?
Answer: Its value is 7%.

Question: What does the source list for `O=C(O)CCCc1ccc(N(CCCl)CCCl)cc1` [chlorambucil]?
Answer: complete remission rates [4]: 5-20%; overall response rate [4]: 50-70%

Question: With “RhIL-15: exogenous recombinant human IL-15” as the compound, how does the “maximum serum concentration (Cmax)” value ([5]; 0.3 μg/kg per day) read?
Answer: Its value is 1,260±350 pg/mL.

Question: What about the “maximum serum concentration (Cmax)” value ([5]; 1.0 μg/kg per day) of the same compound?
Answer: The value was 15,900±1,900 pg/mL.

Question: What about the “maximum serum concentration (Cmax)” value ([5]; 3.0 μg/kg per day) of the same compound?
Answer: The value was 43,800±18,300 pg/mL.

Question: What about the dose-limiting toxicities ([5]; 3.0 and 1.0 μg/kg per day) of the same compound?
Answer: Its dose-limiting toxicities is “grade 3 hypotension, thrombocytopenia, and elevations of ALT and AST”.

Question: And the maximum-tolerated dose ([5]; bolus infusions for 12 consecutive days)?
Answer: The maximum-tolerated dose was 0.3 μg/kg per day.

Question: What about the immune cell activation ([5]; patients) of the same compound?
Answer: Its immune cell activation is “activate NK cells, monocytes, γδ, and CD8 T cells”.

Question: Which IL15 release in culture supernatant with CD19+ CLL B cells (pg/mL/10^6 cells) [6] does the source give for “anti-CD19 chimeric antigen receptor (scFv against CD19, human IgG CH2-CH3 hinge, CD28 transmembrane domain, CD28.CD3zeta signaling endodomain) expressed on cord blood NK cells from the iC9/CAR.19/IL15 retroviral vector” here?
Answer: Its IL15 release in culture supernatant with CD19+ CLL B cells (pg/mL/10^6 cells) is 27.6.
